According to US11364232B2, “Polymer of gamma-glutamyl transpeptidase catalyzing hydrolysis-induced charge reversal and its application in the field of drug delivery” (ZHEJIANG UNIVERSITY, priority 2017, dated 2022):

Target: γ-glutamyl transpeptidase (Homo sapiens, UniProt P19440)
Experiment: γ-glutamyl transpeptidase (GGT)-catalyzed hydrolysis of monomers followed by NMR
Format: biochemical
Settings: monomer 25 μM in PBS pH 7.4 (D2O), GGT 1 U/mL, 37° C.
Experimental: Dissolve monomers GABEA or GAEA in PBS solution (pH=7.4, prepared by D2O) and configure the monomer concentration to 25 μM in the PBS solution. γ-glutamyl transpeptidase was added into the solution respectively so that the concentration of γ-glutamyl transpeptidase in the solution is 1 U/mL. At this time, the obtained product was immediately detected by nuclear magnetic resonance. The sample was placed in a 37° C. incubator and analyzed the nuclear magnetic resonance at different times.

γ-glutamyl transpeptidase, sequence (P19440 whole entry): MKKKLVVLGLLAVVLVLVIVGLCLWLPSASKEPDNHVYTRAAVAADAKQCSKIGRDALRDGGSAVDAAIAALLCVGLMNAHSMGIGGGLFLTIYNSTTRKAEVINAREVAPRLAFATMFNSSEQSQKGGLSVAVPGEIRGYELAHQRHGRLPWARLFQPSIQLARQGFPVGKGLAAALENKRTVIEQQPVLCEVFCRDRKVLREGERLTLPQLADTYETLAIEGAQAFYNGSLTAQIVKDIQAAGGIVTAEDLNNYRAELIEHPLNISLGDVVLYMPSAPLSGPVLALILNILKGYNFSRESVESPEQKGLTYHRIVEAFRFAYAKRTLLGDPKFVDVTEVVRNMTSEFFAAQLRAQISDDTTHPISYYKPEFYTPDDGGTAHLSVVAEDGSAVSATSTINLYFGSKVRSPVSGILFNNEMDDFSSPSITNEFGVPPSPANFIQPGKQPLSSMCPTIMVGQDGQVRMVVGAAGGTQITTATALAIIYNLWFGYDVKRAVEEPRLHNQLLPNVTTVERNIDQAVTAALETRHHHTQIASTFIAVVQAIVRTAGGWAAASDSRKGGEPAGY

Row | Compound | hydrolysis activity of γ-glutamyl transpeptidase
1 | C=CC(=O)NCCNC(=O)C(CC)NC(=O)CCC(N)C(=O)O (centres unmarked) [GABEA] | far greater than GAEA
2 | C=CC(=O)NCCNC(=O)CCC(N)C(=O)O (centres unmarked) [GAEA] | lower catalytic activity
